`*/C(F)=C(\F)C(F)(C(*)(F)F)C(F)(F)F` (repeat unit): the glass transition temperature was -3.00 °C. `*C(=O)N1C(=O)N(C(=O)c2ccc3c(c2)C(=O)N(c2ccc(Oc4ccc(N5C(=O)c6ccc(*)cc6C5=O)cc4)cc2)C3=O)C(C)(C)C1=O` (repeat unit): the glass transition temperature is 156.00 °C. The result for `*C(=O)N1C(=S)N(C(=O)c2ccc3c(c2)C(=O)N(c2ccc(Oc4ccc(N5C(=O)c6ccc(*)cc6C5=O)cc4)cc2)C3=O)C(C)=C(C(=O)OCC)C1c1ccc(OC)cc1OC` (repeat unit) reads 165.00 °C; that for `*C(=O)Oc1ccc(C(C)(C)c2ccc(OC(=O)c3ccc4c(c3)C(=O)N(c3ccc(-c5ccc(N6C(=O)c7ccc(*)cc7C6=O)cc5C)c(C)c3)C4=O)cc2)cc1` (repeat unit), 166.00 °C.

For the molecule `*C(=O)Oc1ccc(C23CC4CC(CC(C4)C2)C3)c(OC(=O)c2ccc3c(c2)C(=O)N(c2ccc(-c4ccc(N5C(=O)c6ccc(*)cc6C5=O)cc4C)c(C)c2)C3=O)c1` (repeat unit), the glass transition temperature was 225.00 °C. The result for `*C(=O)c1ccc2c(c1)C(=O)N(c1ccc(-c3ccc(N4C(=O)c5ccc(*)cc5C4=O)cc3C)c(C)c1)C2=O` (repeat unit) reads 385.00 °C. The result for `*C(=O)c1ccc2c(c1)C(=O)N(c1ccc(Oc3ccc(C(c4ccc(Oc5ccc(N6C(=O)c7ccc(*)cc7C6=O)cc5C(F)(F)F)cc4)(C(F)(F)F)C(F)(F)F)cc3)c(C(F)(F)F)c1)C2=O` (repeat unit) reads 220.00 °C; that for `*C(=O)c1cccc(C(=O)c2ccc3c(c2)C(=O)N(c2ccc(Oc4ccc(N5C(=O)c6ccc(*)cc6C5=O)cc4)cc2)C3=O)c1` (repeat unit), 244.00 °C. The result for `*CCCCCCCCCCCCN1C(=O)c2ccc(-c3ccc(-c4ccc5c(c4)C(=O)N(*)C5=O)cc3)cc2C1=O` (repeat unit) reads 86.00 °C; that for `*CCCCCCCCCCN1C(=O)c2ccc(-c3ccc(-c4ccc5c(c4)C(=O)N(*)C5=O)cc3)cc2C1=O` (repeat unit), 103.00 °C; that for `*CCCCCCCCCN1C(=O)c2ccc(-c3ccc(-c4ccc5c(c4)C(=O)N(*)C5=O)cc3)cc2C1=O` (repeat unit), 104.00 °C. Molecule `*CCCCCCN1C(=O)c2ccc(-c3ccc(-c4ccc5c(c4)C(=O)N(*)C5=O)cc3)cc2C1=O` (repeat unit) showed a glass transition temperature of 141.00 °C. The result for `*ON(C(F)(F)F)C(F)(F)/C(F)=C(\F)C(*)(F)F` (repeat unit) reads -7.00 °C; that for `*Oc1ccc(-c2ccc(-c3ccc(Oc4ccc(C(c5ccc(*)cc5)(C(F)(F)F)C(F)(F)F)cc4)c(C(F)(F)F)c3)cc2)cc1C(F)(F)F` (repeat unit), 207.50 °C. The molecule `*Oc1ccc(C2(c3ccc(Oc4ccc(-c5ccc(-c6ccc(*)c(C(F)(F)F)c6)cc5)cc4C(F)(F)F)cc3)c3ccccc3-c3ccccc32)cc1` (repeat unit) gave a glass transition temperature of 237.00 °C. Regarding `*Oc1ccc(Sc2ccc(Oc3ccc(-c4ccc(-c5ccc(*)c(C(F)(F)F)c5)cc4)cc3C(F)(F)F)cc2)cc1` (repeat unit), the glass transition temperature worked out at 164.50 °C. The result for `*c1ccc(-c2ccc(-c3nnc(-c4ccc([Si](c5ccccc5)(c5ccccc5)c5ccc(-c6nnc(*)o6)cc5)cc4)o3)cc2)cc1` (repeat unit) reads 278.00 °C.

Molecule `*c1ccc(-c2ccc(-n3c(=O)c4cc5c(=O)n(*)c(=O)c5c(C(F)(F)F)c4c3=O)cc2C)c(C)c1` (repeat unit) showed a glass transition temperature of 373.00 °C. The result for `*c1ccc(-c2ccc(N(*)c3ccc(C(F)(F)F)cc3)cc2)cc1` (repeat unit) reads 225.00 °C; that for `*c1ccc(-c2ccc(N(*)c3ccc(CCCC)cc3)cc2)cc1` (repeat unit), 180.00 °C; that for `*c1ccc(-c2ccc(N(c3ccc(OC)cc3)c3ccc4ccc(N(*)c5ccc(OC)cc5)cc4c3)cc2)cc1` (repeat unit), 232.00 °C.

The molecule `*c1ccc(-c2ccc(N(c3ccccc3)c3ccc(-c4ccc(N(c5ccccc5)c5ccc(-c6ccc(-n7c(=O)c8cc9c(=O)n(*)c(=O)c9cc8c7=O)cc6)cc5)cc4)cc3)cc2)cc1` (repeat unit) registered a glass transition temperature of 220.00 °C.

With `*c1ccc(-c2ccc([Si](*)(CCCC)CCCC)s2)s1` (repeat unit), the glass transition temperature was -10.00 °C. The result for `*c1ccc(-c2ccc3c(c2)C(CCCCCCC#N)(CCCCCCC#N)c2cc(*)ccc2-3)cc1` (repeat unit) reads 90.00 °C; that for `*c1ccc(-c2ccc3c(c2)C(CCCCCCCC)(CCCCCCCC)c2cc(*)ccc2-3)c(F)c1` (repeat unit), 34.00 °C; that for `*c1ccc(-c2ccc3nc(*)cc(-c4ccccc4)c3c2)cc1` (repeat unit), 383.00 °C. `*c1ccc(-c2cnc3cc4nc(*)cnc4cc3n2)cc1` (repeat unit) gave a glass transition temperature of 392.00 °C.

`*c1ccc(-c2nc3cc(C)ccc3o2)c(*)c1` (repeat unit) gave a glass transition temperature of 221.00 °C. For `*c1ccc(-c2nc3cc(S(=O)(=O)c4ccc5nc(-c6ccccc6)c(-c6ccc(-n7c(=O)c8cc9c(=O)n(*)c(=O)c9cc8c7=O)cc6)nc5c4)ccc3nc2-c2ccccc2)cc1` (repeat unit), the glass transition temperature was determined as 186.00 °C. `*c1ccc(-c2nc3cc4sc(*)nc4cc3s2)cc1` (repeat unit) gave a glass transition temperature of 25.00 °C.

In turn, `*c1ccc(-c2nc3ccc(Oc4ccc5nc(*)c(-c6ccccc6)c(-c6ccccc6)c5c4)cc3c(-c3ccccc3)c2-c2ccccc2)cc1` (repeat unit) came in with a glass transition temperature of 345.00 °C. The result for `*c1ccc(-c2nnc(*)o2)c(OCCCCCCCC)c1` (repeat unit) reads 173.00 °C; that for `*c1ccc(-c2nnc(-c3cccc(-c4nnc(*)n4-c4ccccc4)c3)n2-c2ccccc2)cc1` (repeat unit), 272.50 °C; that for `*c1ccc(-n2c(=O)c3cc4c(=O)n(*)c(=O)c4cc3c2=O)c(S(=O)(=O)[O][Na])c1` (repeat unit), 227.00 °C. Molecule `*c1ccc(C(c2ccccc2)c2ccc(N(c3ccc(C)cc3)c3ccc(-c4ccc(N(*)c5ccc(C)cc5)cc4)cc3)cc2)cc1` (repeat unit) returned a glass transition temperature of 239.00 °C. The result for `*c1ccc(S(=O)(=O)c2ccc(-n3nccc3-c3ccc(-c4ccnn4*)cc3)cc2)cc1` (repeat unit) reads 266.00 °C; that for `*c1ccc([Si](c2ccccc2)(c2ccccc2)c2ccc(-c3nnc(*)o3)cc2)cc1` (repeat unit), 262.00 °C; that for `*c1ccc([Si](c2ccccc2)(c2ccccc2)c2ccc(-c3nnc(-c4ccc(-c5nnc(*)o5)cc4)o3)cc2)cc1` (repeat unit), 274.00 °C. The result for `*c1ccc2oc(-c3ccc(C(c4ccccc4)(c4ccc(-c5nc6cc(C(*)(C(F)(F)F)C(F)(F)F)ccc6o5)cc4)C(F)(F)F)cc3)nc2c1` (repeat unit) reads 310.00 °C. In turn, `*c1ccc2oc(-c3ccc(C(c4ccccc4)(c4ccc(-c5nc6cc(C(*)(c7ccccc7)C(F)(F)F)ccc6o5)cc4)C(F)(F)F)cc3)nc2c1` (repeat unit) yielded a glass transition temperature of 330.00 °C.
